Earlier results in patent publication US9598354B2, “Fumarate compounds, pharmaceutical compositions thereof, and methods of use” (priority 2015, dated 2017).

**Q.** With `COC(=O)/C=C/C(=O)OC` [DMF, dimethylfumarate] as the compound, how does the aqueous solubility read?
**A.** poor
